Source: patent publication US11724980B2, “Quinones having high capacity retention for use as electrolytes in aqueous redox flow batteries” (President and Fellows of Harvard College, priority 2018, dated 2023)
In brackets after ≈: the same amount, converted by molar mass. Where two headings read alike, the source gives them in different places.

Assays:
physchem [1] = assay type: physicochemical; conditions: 0.1 M
Protocol: FIGS. 24A-24D. Comparison of the stability of DPPEAQ with respect to alkyl chain cleavage to that of 2,6-DBEAQ at pH 14. ^1H NMR spectra (500 MHz, 10 mM NaCH3SO3 internal standard, δ 2.6 ppm) of (A) DPPEAQ at pH 14; (B) DPPEAQ at pH 14, treated for 5.5 days at 95° C. and 0.1 M concentration; (C) 2,6-DBEAQ at pH 14; (D) 2,6-DBEAQ at pH 14, treated for 5.5 days at 95° C. and 0.1 M concentration. […] The relative integrals and splitting of the peaks in the spectra of DPPEAQ after treatment are consistent with the products of (3-hydroxypropyl)phosphonate cleavage. Samples of DPPEAQ at 0.1 M concentration and pH 14 in both the oxidized and reduced form were stored in FEP bottles and heated in an oven at 65° C. for 2 weeks. The extent of decomposition was determined by ^1H NMR, with peak integrals measured relative to an internal standard of NaCH3SO3 prepared at 10 mM concentration in D2O.
By performing elevated temperature chemical stability studies, we have identified that the cleavage of γ-hydroxybutyrate is involved in the decomposition of the oxidized form of 2,6-DBEAQ (FIGS. 10A-10C and FIGS. 11A-11D), and we have characterized the time course of γ-hydroxybutyrate cleavage at pH 12 and pH 14 and at 0.1 M and 0.5 M concentration (FIG. 12 and FIGS. 13A-13C). […]; these observations are consistent with long redox flow battery lifetime at typical operating cell conditions.
We designed an analogue of 2,6-DBEAQ but with phosphonate-terminated functional groups, DPPEAQ, appearing to deliver both of these desired outcomes.
The differing relative stabilities of DPPEAQ and 2,6-DBEAQ at pH 12 (at 95° C. and 0.1 M concentration), in contrast to the similar extent of their observed decomposition at pH 14, may be due to a competition between multiple decomposition mechanisms that vary in a pH-dependent manner. The concentration of hydroxide ions at pH 14 is tenfold higher than the concentration of either molecule at 0.1 M, as opposed to tenfold lower at pH 12. In particular, we propose a hydroxide-mediated nucleophilic substitution reaction (SNAr or SN2) that dominates the decomposition of both molecules at pH 14. However, at a lower pH of 12, an intramolecular reaction with carboxylate acting as the nucleophile dominates in the decomposition of 2,6-DBEAQ, while no analogous intramolecular reaction of DPPEAQ at pH 12 can take place due to much weaker nucleophilicity of bulked phosphonate compared with carboxylate. The difference in the dominant mechanisms of 2,6-DBEAQ decomposition at pH 12 and 14 that we are proposing is also consistent with the observation that the initial rate of degradation is not 100-fold slower at pH 12 relative to pH 14. […] In addition, the operability at lower pH serves to decrease the corrosion of battery systems and enable the use of less expensive materials.

[2] = Unbalanced compositionally-symmetric cell cycling; conditions: for temporal fade rate: 0.10 M, pH 12 (0.01 M KOH)
Protocol: As a direct probe of the effect of O-alkylation of anthraquinone on its chemical stability, 2,6-DBEAQ was cycled potentiostatically in a volumetrically unbalanced compositionally-symmetric cell configuration.
Potentiostatic symmetric cell cycling was performed according to a reported procedure^8 in order to assess the temporal chemical stability of DBEAQ, independent of any variations in apparent capacity as a result of changes to membrane resistance, and in a configuration where there is negligible water or reactant crossover due to the same DBEAQ concentration being used in both electrolytes. […] 5 mL of the resulting electrolyte was used as the capacity-limiting side of a volumetrically unbalanced compositionally-symmetric cell, while the remaining 10 mL was used as the non-capacity-limiting side, i.e., with twice the nominal capacity of the capacity-limiting side. […].
The cycling stability of the DPPEAQ electrolyte was also studied by a previously published symmetric cell method.^24 Although the oxidized form of DPPEAQ is readily soluble at pH 9, proton-coupled electron transfer raises the pH of the electrolyte when it is reduced. Such pH fluctuations can produce misleading results in symmetric cell testing unless the starting pH is above the cutoff point for proton-coupled electron transfer.

[3] = Cyclic voltammetry on glassy carbon electrode; assay type: physicochemical
Protocol: Glassy carbon was used as the working electrode for all three-electrode CV tests. RDE experiments were conducted using a Pine Instruments Modulated Speed Rotator AFMSRCE equipped with a 5 mm diameter glassy carbon working electrode, a Ag/AgCl reference electrode (BASi, pre-soaked in 3 M NaCl solution), and a graphite counter electrode. The electrode was rotated at a specific speed while the voltage was linearly swept from −0.4 to −0.11 V vs. Ag/AgCl (FIG. 4A). […].
A second CV experiment was performed in which 2,6-DBEAQ was dissolved in pH 14 KOH solution at a concentration of 2 mM. CV measurements were plotted in FIG. 4C. The standard equilibrium potential was determined to be −0.49 V vs. SHE. The separation between the peaks in the CV curves was 42 mV, indicating fairly rapid and reversible electrochemical reactions at the surface of the electrodes.

[4] = Rotating disk electrode study with Levich analysis; assay type: physicochemical; conditions: 5 mM in 1 M KOH, Levich plot
Protocol: Glassy carbon was used as the working electrode for all three-electrode CV tests. RDE experiments were conducted using a Pine Instruments Modulated Speed Rotator AFMSRCE equipped with a 5 mm diameter glassy carbon working electrode, a Ag/AgCl reference electrode (BASi, pre-soaked in 3 M NaCl solution), and a graphite counter electrode. The electrode was rotated at a specific speed while the voltage was linearly swept from −0.4 to −0.11 V vs. Ag/AgCl (FIG. 4A). […]. RDE experiments were conducted using a Pine Instruments Modulated Speed Rotator AFMSRCE equipped with a 5 mm diameter glassy carbon working electrode, a Ag/AgCl reference electrode (BASi, pre-soaked in a 3 M KCl solution), and a graphite counter electrode. […]

physchem [5] = assay type: physicochemical; conditions: for solubility: thermodynamic from solid
Protocol: Solubility limits of all DBEAQ isomers were measured in their oxidized forms by adding the potassium salt of DBEAQ (prepared by reacting DBEAQ with potassium hydroxide in water) until no further solid could be dissolved. After filtering the mixture through a PTFE 0.45 μm syringe filter, a saturated solution of DBEAQ in KOH was obtained. The saturated solution was then diluted by a known amount, and the concentration was evaluated by UV-Vis (Ocean Optics Flame-S Spectrometer Assembly) at 280 and 364 nm. […]
The solubility limit of DPPEAQ was measured in the oxidized form by adding the potassium salt of DPPEAQ (prepared by reacting DPPEAQ with potassium hydroxide in water) until no further solid could be dissolved. The mixture was adjusted to pH 9. After filtering the mixture through a PTFE 0.45 μm syringe filter, a saturated solution of DPPEAQ at pH 9 was obtained. The saturated solution was then diluted by a known amount while maintaining a pH of 9, and the concentration was evaluated by UV-Vis (Agilent Cary 60 spectrophotometer). The concentration was calculated according to a pre-calibrated absorbance-concentration curve of known concentrations of DPPEAQ at pH 9.

[6] = pH 14 KOH, literature (ref 3); cited from earlier work
[7] = previous study (ref 3/17); cited from earlier work
[8] = CV simulation as two one-electron reductions; assay type: physicochemical; conditions: same AQ:AQ2− ratio, from E1-E2 separations
Protocol: FIG. 6. Capacitance-corrected CV of 5 mM 2,6-DBEAQ in 1 M KOH (solid grey line). The dashed red line represents the simulated total current arising from two successive one-electron reductions with reduction potentials of −0.517 and −0.511 V vs. SHE, according to the procedure outlined in a previous publication.^1 Each simulated reduction has a rate constant ko=7×10^−3 cm/s and α=0.5.
A first CV experiment was performed in which 2,6-DBEAQ was dissolved in pH 14 KOH solution at a concentration of 5 mM. CV measurements were plotted in FIG. 5A and include results for the isomers of 2,6-DBEAQ.
Following our previous study on 2,6-DHAQ^17 and literature reports^1,18 on quinone electrochemistry in the absence of proton donors, we simulated the CV of 2,6-DBEAQ as representing two reversible electron transfer steps at two different potentials E1 and E2. The separation between simulated redox potentials for the first (E1) and second (E2) electron reductions for 2,6-DBEAQ is considerably narrower than the corresponding peak separation for 2,6-DHAQ^17 (6 mV vs. 60 mV).
The pH dependence of the proton-coupled electron transfer (POET) redox reaction for a generalized anthraquinone (AQ) is often visualized by the nine-membered square scheme (FIG. 7). The horizontal direction indicates electron transfer (ET), and the vertical direction indicates proton transfer (PT or protonation). Under strongly alkaline conditions, where the pH is higher than the second pKa (pKa2) of the reduced AQ (AQ^2−), no protonation of the semiquinone anion will take place, and reduction proceeds via two ET steps, from AQ to a semiquinone (AQ-^●) at E1, and from AQ-^● to AQ^2− at E2 which is typically <E1. Depending on the value of E1-E2, the mechanism of AQ reduction in alkaline conditions can either be a concerted one-step, two-electron process or two single-electron processes. […]

[9] = cited from earlier work
[10] = cited from earlier work; remark: listed apart in the source

Question: For `O=C1c2ccc(OCCCP(=O)(O)O)cc2C(=O)c2ccc(OCCCP(=O)(O)O)cc21` [DPPEAQ, (((9,10-dioxo-9,10-dihydroanthracene-2,6-diyl)bis(oxy))bis(propane-3,1-diyl))bis(phosphonic acid)], which decomposition (physchem [1]; pH 9, 6 days at 95° C.) is on record?
Answer: no significant decomposition

Question: And the decomposition (physchem [1]; pH 12, 6 days at 95° C.)?
Answer: no significant decomposition

Question: What about the decomposition (physchem [1]; pH 14, 5.5 days at 95° C.) of the same compound?
Answer: 45%

Question: And the “chemical stability of the reduced form” value (physchem [1]; pH 14, 12 days at 65° C.)?
Answer: robust chemical stability

Question: What about the capacity fade ([2]; 0.1 M, pH 13, cycled 6 days) of the same compound?
Answer: 0.02 %/day

Question: And the “pH above which the potential is pH-independent” value ([3]; Pourbaix diagram)?
Answer: ~12.4

Question: What about the “redox potential (E1/2)” value ([3]; buffered pH 9) of the same compound?
Answer: −0.39 V vs. SHE

Question: And the “redox potential (E1/2)” value ([3]; buffered pH 12)?
Answer: −0.47 V vs. SHE

Question: And the Pourbaix diagram slope ([3]; fit to data below pH 12)?
Answer: −30 mV/pH

Question: And the “redox potential (E1/2)” value ([3]; pH 9 unbuffered aqueous solution)?
Answer: −0.47 V vs. SHE

Question: And the “redox potential (E1/2)” value ([3]; pH 12 unbuffered aqueous solution)?
Answer: −0.49 V vs. SHE

Question: And the “diffusion coefficient for the oxidized form” value [4]?
Answer: 1.37×10^−6 cm^2/s

Question: And the solubility (physchem [5]; pH 9, aqueous buffer, pH 9, read-out: solubility of the oxidized form)?
Answer: 750 mM (≈ 363 mg/mL)

Question: Which room temperature solubility [6] does the source give for `O=C1c2ccc(O)cc2C(=O)c2ccc(O)cc21` [2,6-DHAQ, 2,6-dihydroxyanthraquinone] here?
Answer: 600 mM

Question: What about the E1-E2 separation [7] of the same compound?
Answer: 60 mV

Question: What about the “Keq_comp for semiquinone formation, times higher than for 2,6-DBEAQ” value [8] of the same compound?
Answer: 2.83 times

Question: And the “temporal capacity fade rate” value ([2]; pH 14 (1 M KOH), 0.10 M (2,6-DBEAQ also 0.65 M))?
Answer: 5 %/day

Question: What about the reduction potential ([9]; comparison value for 2,6-DHAQ) of the same compound?
Answer: −680 mV vs. SHE

Question: What about the redox peak separation ([9]; literature (ref 3)) of the same compound?
Answer: ~90 mV

Question: What about the solubility (physchem [5]; pH 12, aqueous buffer) of the same compound?
Answer: 100 mM (≈ 24 mg/mL)

Question: And the solubility (physchem [5]; pH 14, aqueous buffer)?
Answer: 60 mM (≈ 14.4 mg/mL)

Question: What about the capacity fade rate ([10]; reported (refs 21,22)) of the same compound?
Answer: 5 %/day

Question: With `O=C(O)CCCOc1ccc2c(c1OCCCC(=O)O)C(=O)c1ccccc1C2=O` [1,2-DBEAQ] as the compound, how does the temporal fade rate [2] read?
Answer: greater than 0.1 %/day

Question: What about the “Solubility (M) at pH 14 (pH 12)” value (physchem [5]) of the same compound?
Answer: 0.9 M

Question: Which temporal fade rate ([10]; lowest previously reported quinone-based electrolyte (refs 10,11)) does the source give for `O=C1c2ccc(S(=O)(=O)O)cc2C(=O)c2ccc(S(=O)(=O)O)cc21` [AQDS, 9,10-anthraquinone-2,6-disulfonate] here?
Answer: 0.1-0.2 %/day

Question: What does the source list for `O=C(O)CCCOc1cccc2c1C(=O)c1c(OCCCC(=O)O)cccc1C2=O` [1,8-DBEAQ]?
Answer: temporal fade rate [2]: > 10 %/day; Solubility (M) at pH 14 (pH 12) (physchem [5]): 0.75 M
